According to patent publication US20190290759A1, “COMBINATION OF HDAC INHIBITOR AND ANTI-PD-L1 ANTIBODY FOR TREATMENT OF OVARIAN CANCER” (Syndax Pharmaceuticals, Inc., priority 2015, published 2019):

Tests used:
[1] = system: HLA-ABC on PC-3 carcinoma cells; assay: Cell-surface HLA-ABC expression by flow cytometry, PC-3; type: cell-based, human; settings: PC-3 (prostate), vorinostat 3 μM 5 h daily x4 days or entinostat 500 nM 72 h; for HLA-ABC % Positive: DMSO controls 99.8 / 99.9; for HLA-ABC MFI: DMSO controls 699 / 801
[2] = system: MICA/B on NCI-H441 carcinoma cells; assay: Cell-surface MIC-A/B expression by flow cytometry, NCI-H441; type: cell-based, human; settings: NCI-H441 (lung); vorinostat 3 μM 5 h daily x4 days or entinostat 500 nM 72 h; DMSO controls 23.5 / 16.7
[3] = system: histone acetylation; settings: following the administration of entinostat; cited from earlier work
[4] = system: PD-L1 on NCI-H460 carcinoma cells; assay: Cell-surface PD-L1 expression by flow cytometry, NCI-H460; type: cell-based, human; settings: NCI-H460 (lung), vorinostat 3 μM 5 h daily x4 days or entinostat 500 nM 72 h; for PD-L1 % Positive: DMSO controls 68.0 / 89.5; for PD-L1 MFI: DMSO controls 199 / 492
[5] = system: PD-L1 on NCI-H441 carcinoma cells; assay: Cell-surface PD-L1 expression by flow cytometry, NCI-H441; settings: NCI-H441 (lung); vorinostat 3 μM 5 h daily x4 days or entinostat 500 nM 72 h; DMSO controls 958 / 1031
[6] = system: MICA/B on PC-3 carcinoma cells; assay: Cell-surface MIC-A/B expression by flow cytometry, PC-3; type: cell-based, human; settings: PC-3 (prostate); vorinostat 3 μM 5 h daily x4 days or entinostat 500 nM 72 h; DMSO controls 33.2 / 43.7
[7] = system: MICA/B on AsPC-1 carcinoma cells; assay: Cell-surface MIC-A/B expression by flow cytometry, AsPC-1; type: cell-based, human; settings: AsPC-1 (pancreas); vorinostat 3 μM 5 h daily x4 days or entinostat 500 nM 72 h; DMSO controls 1.9 / 1.4
[8] = system: PD-L1 on AsPC-1 carcinoma cells; assay: Cell-surface PD-L1 expression by flow cytometry, AsPC-1; type: cell-based, human; settings: AsPC-1 (pancreas), vorinostat 3 μM 5 h daily x4 days or entinostat 500 nM 72 h; for PD-L1 % Positive: DMSO controls 1.4 / 1.9; for PD-L1 MFI: DMSO controls 87.5 / 91.4
[9] = system: human lung and prostate carcinoma cells (DU 145, PC-3, NCI-H460, NCI-H441); assay: Avelumab-mediated ADCC, 4 h 111In release assay with NK effectors; type: cell-based; settings: cells pre-exposed to vorinostat 3 μM (5 h daily x4 days) or entinostat 500 nM (72 h) vs DMSO; avelumab 2 ng/mL; NK effectors E:T=30:1
Experimental: (§1) NK lysis was performed in the presence of avelumab or isotype control (2 ng/mL).
(§2) Results are presented as mean±S.E.M. from 3 replicate wells, and are representative of 2-4 independent experiments. […] For CD16 blocking, NK cells were pretreated for 2 h with anti-CD16 blocking antibody prior to being used as effectors. Results are presented as mean±S.E.M. from 3 replicate wells, and are representative of 2-4 independent experiments.

[10] = system: HLA-ABC on NCI-H460 carcinoma cells; assay: Cell-surface HLA-ABC expression by flow cytometry, NCI-H460; type: cell-based, human; settings: NCI-H460 (lung), vorinostat 3 μM 5 h daily x4 days or entinostat 500 nM 72 h; for HLA-ABC % Positive: DMSO controls 86.6 / 99.2; for HLA-ABC MFI: DMSO controls 371 / 822
[11] = system: MICA/B on NCI-H460 carcinoma cells; assay: Cell-surface MIC-A/B expression by flow cytometry, NCI-H460; type: cell-based, human; settings: NCI-H460 (lung); vorinostat 3 μM 5 h daily x4 days or entinostat 500 nM 72 h; DMSO controls 4.4 / 20.3
[12] = system: PD-L1 on DU 145 carcinoma cells; assay: Cell-surface PD-L1 expression by flow cytometry, DU 145; type: cell-based, human; settings: DU 145 (prostate), vorinostat 3 μM 5 h daily x4 days or entinostat 500 nM 72 h; for PD-L1 % Positive: DMSO controls 76.3 / 81.4; for PD-L1 MFI: DMSO controls 200 / 226
[13] = system: host immune suppressor cells; settings: preclinical models; cited from earlier work
[14] = in vivo; cited from earlier work
[15] = system: PD-L1 in lung and prostate carcinoma xenografts (NCI-H460, PC-3, DU 145); assay: Human xenografts, PD-L1 immunofluorescence; type: in vivo, nu/nu mice; settings: vorinostat 150 mg/kg p.o. 4 daily doses, excised 24 h after last dose; entinostat 20 mg/kg p.o. single dose 72 h before excision; vs DMSO
Experimental: Female nu/nu mice were implanted with NCI-H460 (lung) or PC-3 (prostate) carcinoma cells. […] Frozen specimens were examined for cell-surface expression of PD-L1 by immunofluorescence using antihuman PD-L1 (clone SP142) and goat anti-rabbit AF594, and counterstained with DAPI-containing mounting medium.
Tumors were excised 24 h after the last dose. […] Frozen sections were examined for cell-surface expression of human PD-L1 by immunofluorescence. Confocal images are shown at 20× magnification and are representative of 3 animals/treatment. Relative PD-L1 expression levels were calculated using ImageJ software by normalizing the intensity values to their respective DMSO treated controls.

[16] = system: PD-L1 on PC-3 carcinoma cells; assay: Cell-surface PD-L1 expression by flow cytometry, PC-3; type: cell-based, human; settings: PC-3 (prostate), vorinostat 3 μM 5 h daily x4 days or entinostat 500 nM 72 h; for PD-L1 % Positive: DMSO controls 74.1 / 55.8; for PD-L1 MFI: DMSO controls 207 / 146
[17] = system: HLA-ABC on NCI-H441 carcinoma cells; assay: Cell-surface HLA-ABC expression by flow cytometry, NCI-H441; type: cell-based, human; settings: NCI-H441 (lung), vorinostat 3 μM 5 h daily x4 days or entinostat 500 nM 72 h; for HLA-ABC % Positive: DMSO controls 99.9 / 99.9; for HLA-ABC MFI: DMSO controls 1182 / 1232
[18] = system: HLA-ABC on AsPC-1 carcinoma cells; assay: Cell-surface HLA-ABC expression by flow cytometry, AsPC-1; type: cell-based, human; settings: AsPC-1 (pancreas), vorinostat 3 μM 5 h daily x4 days or entinostat 500 nM 72 h; for HLA-ABC % Positive: DMSO controls 98.5 / 99.1; for HLA-ABC MFI: DMSO controls 625 / 670
[19] = system: MICA/B on DU 145 carcinoma cells; assay: Cell-surface MIC-A/B expression by flow cytometry, DU 145; type: cell-based, human; settings: DU 145 (prostate); vorinostat 3 μM 5 h daily x4 days or entinostat 500 nM 72 h; DMSO controls 42.9 / 58.9
[20] = system: HLA-ABC on DU 145 carcinoma cells; assay: Cell-surface HLA-ABC expression by flow cytometry, DU 145; type: cell-based, human; settings: DU 145 (prostate), vorinostat 3 μM 5 h daily x4 days or entinostat 500 nM 72 h; for HLA-ABC % Positive: DMSO controls 100 / 100; for HLA-ABC MFI: DMSO controls 200 / 226
[21] = in vitro; settings: human, PC-3 prostate carcinoma cells
[22] = system: whole PBMCs or dendritic cells isolated from PBMCs; settings: cited from earlier work
[23] = system: human carcinoma cell lines; settings: cited from earlier work
[24] = system: NCI-H460 lung carcinoma cells; assay: Avelumab-mediated NK lysis with CD16 blocking; type: cell-based, human; settings: NK cells pretreated 2 h with anti-CD16 blocking antibody 12 μg/mL; targets exposed to vorinostat or DMSO; avelumab 2 ng/mL
Experimental: as §1
NK cells were pretreated for 2 h with anti-CD16 blocking antibody (12 μg/mL) prior to being used as effectors.
as §2

Compound	HLA-ABC % Positive [1] [%]	HLA-ABC MFI [1]	MIC-A/B % Positive [2] [%]	PD-L1 % Positive [4] [%]	PD-L1 MFI [4]	PD-L1 MFI [5]	MIC-A/B % Positive [6] [%]	MIC-A/B % Positive [7] [%]	PD-L1 % Positive [8] [%]	PD-L1 MFI [8]	HLA-ABC % Positive [10] [%]	HLA-ABC MFI [10]	MIC-A/B % Positive [11] [%]	PD-L1 % Positive [12] [%]	PD-L1 MFI [12]	PD-L1 expression in vivo in xenografts (immunofluorescence) [15]	PD-L1 % Positive [16] [%]	PD-L1 MFI [16]	HLA-ABC % Positive [17] [%]	HLA-ABC MFI [17]	other results
Nc1ccccc1NC(=O)c1ccc(CNC(=O)OCc2cccnc2)cc1 [Entinostat, N-(2-aminophenyl)-4-[N-(pyridine-3-yl)methoxycarbonylamino-methyl]-benzamide]	100	1144	46.2	90.2	507	1027	91.5	6.5	9.9	126	94.3	547	69.8	99.5	705	enhance PD-L1 expression	86.4	240	99.9	1375	persistence of changes in histone acetylation [3]: persist for several weeks; Sensitivity of carcinoma cells to ADCC mediated by avelumab (NK-cell lysis) [9]: significantly increased sensitivity; effect on host immune suppressor cells [13]: reduce the number of, and inhibit the function of, host immune suppressor cells; half-life [14]: about 100 hours; HLA-ABC % Positive [18]: 99.0%; HLA-ABC MFI [18]: 126; MIC-A/B % Positive [19]: 94.3%; HLA-ABC % Positive [20]: 100%; HLA-ABC MFI [20]: 705
O=C(CCCCCCC(=O)Nc1ccccc1)NO [Vorinostat]	99.7	816	21.1	86.9	278	1053	58.1	0.8	1.4	90.4	97.1	608	70.6	96.0	354	enhance PD-L1 expression	83.3	251	99.9	1284	viability [21]: 99%; HLA-ABC % Positive [18]: 99.2%; HLA-ABC MFI [18]: 806; MIC-A/B % Positive [19]: 93.9%; HLA-ABC % Positive [20]: 100%; HLA-ABC MFI [20]: 354
avelumab: fully human anti-PD-L1 IgG1 antibody	–	–	–	–	–	–	–	–	–	–	–	–	–	–	–	–	–	–	–	–	lysis of PBMCs or dendritic cells in NK-mediated ADCC assays [22]: Little or no lysis; human carcinoma cell lines in which ADCC was induced ([23]; PBMCs as effectors): 8 out of 18; cell lines with augmented lysis after IFN-γ pretreatment ([23]; tumor cell lines pretreated with IFN-γ): 4 out of 10; Avelumab-mediated lysis of carcinoma cells after CD16 neutralization [24]: decreased by CD16 neutralization
